Data from article PMC6631349 (Xenobiotica; the fate of foreign compounds in biological …, 2014).
One block for each compound: values may come before it.

Tests used:
[1] = molecular target: T1, UGT1A8 (Homo sapiens, UniProt Q9HAW9); conditions: Dixon and Lineweaver-Burk plots; 4-MU glucuronidation
T1 sequence (Q9HAW9 26-530): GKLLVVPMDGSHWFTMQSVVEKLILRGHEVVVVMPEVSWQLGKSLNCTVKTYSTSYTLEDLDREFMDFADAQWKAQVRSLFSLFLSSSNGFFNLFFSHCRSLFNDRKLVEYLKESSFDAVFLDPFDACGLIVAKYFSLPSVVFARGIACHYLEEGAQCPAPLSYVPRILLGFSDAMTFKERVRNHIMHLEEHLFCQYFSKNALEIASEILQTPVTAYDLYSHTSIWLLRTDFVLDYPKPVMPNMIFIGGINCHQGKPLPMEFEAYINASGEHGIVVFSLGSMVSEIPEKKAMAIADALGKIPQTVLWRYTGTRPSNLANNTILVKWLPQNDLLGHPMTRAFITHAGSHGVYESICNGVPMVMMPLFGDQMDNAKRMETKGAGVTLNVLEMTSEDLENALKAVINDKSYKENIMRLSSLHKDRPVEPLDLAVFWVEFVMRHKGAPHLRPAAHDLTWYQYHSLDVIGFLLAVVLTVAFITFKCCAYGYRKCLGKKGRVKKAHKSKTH

[2] = molecular target: T2, UGT1A6 (Homo sapiens, UniProt P19224); conditions: Dixon and Lineweaver-Burk plots; 4-MU glucuronidation
T2 sequence (P19224 27-532): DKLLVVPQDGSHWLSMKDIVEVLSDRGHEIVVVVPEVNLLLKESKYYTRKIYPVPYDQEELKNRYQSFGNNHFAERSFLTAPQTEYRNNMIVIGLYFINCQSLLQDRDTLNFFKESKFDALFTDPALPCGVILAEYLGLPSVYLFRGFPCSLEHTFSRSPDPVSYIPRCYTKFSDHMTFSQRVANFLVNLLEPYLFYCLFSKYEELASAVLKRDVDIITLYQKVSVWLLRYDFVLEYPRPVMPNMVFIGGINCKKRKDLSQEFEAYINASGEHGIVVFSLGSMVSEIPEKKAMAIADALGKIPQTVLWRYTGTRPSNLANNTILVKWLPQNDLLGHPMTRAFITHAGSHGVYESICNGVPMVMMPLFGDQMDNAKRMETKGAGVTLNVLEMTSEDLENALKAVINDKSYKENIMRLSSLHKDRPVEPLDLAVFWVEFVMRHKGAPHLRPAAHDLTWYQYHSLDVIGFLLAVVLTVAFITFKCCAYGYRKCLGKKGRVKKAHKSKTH

[3] = tested on: UGT isoforms; experiment: Initial screening towards all UGT isoforms; format: biochemical, human; conditions: about 50 μM; isoforms not given
[4] = molecular target: T3, UGT1A4 (Homo sapiens, UniProt P22310); experiment: UGT1A4-catalyzed trifluoperazine; conditions: recombinant human UGT1A4, probe trifluoperazine (TFP), 40 μM
T3 sequence (P22310 29-534): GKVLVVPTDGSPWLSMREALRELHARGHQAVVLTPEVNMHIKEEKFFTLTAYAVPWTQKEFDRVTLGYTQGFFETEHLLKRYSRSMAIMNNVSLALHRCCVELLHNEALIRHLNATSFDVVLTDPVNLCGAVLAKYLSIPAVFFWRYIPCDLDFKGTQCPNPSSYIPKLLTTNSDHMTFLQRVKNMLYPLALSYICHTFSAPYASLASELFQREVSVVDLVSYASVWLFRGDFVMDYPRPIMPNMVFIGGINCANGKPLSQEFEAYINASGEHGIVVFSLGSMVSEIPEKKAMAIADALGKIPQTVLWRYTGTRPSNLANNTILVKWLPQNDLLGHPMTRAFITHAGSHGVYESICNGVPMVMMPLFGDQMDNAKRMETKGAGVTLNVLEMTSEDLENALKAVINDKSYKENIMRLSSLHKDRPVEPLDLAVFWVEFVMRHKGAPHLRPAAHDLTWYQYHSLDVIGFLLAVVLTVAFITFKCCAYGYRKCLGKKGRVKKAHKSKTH

[5] = molecular target: T2, UGT1A6; conditions: 50 μM
[6] = molecular target: T1, UGT1A8; conditions: 50 μM
[7] = molecular target: T4, UGT2B7 (Homo sapiens, UniProt P16662); conditions: 50 μM
T4 sequence (P16662 24-529): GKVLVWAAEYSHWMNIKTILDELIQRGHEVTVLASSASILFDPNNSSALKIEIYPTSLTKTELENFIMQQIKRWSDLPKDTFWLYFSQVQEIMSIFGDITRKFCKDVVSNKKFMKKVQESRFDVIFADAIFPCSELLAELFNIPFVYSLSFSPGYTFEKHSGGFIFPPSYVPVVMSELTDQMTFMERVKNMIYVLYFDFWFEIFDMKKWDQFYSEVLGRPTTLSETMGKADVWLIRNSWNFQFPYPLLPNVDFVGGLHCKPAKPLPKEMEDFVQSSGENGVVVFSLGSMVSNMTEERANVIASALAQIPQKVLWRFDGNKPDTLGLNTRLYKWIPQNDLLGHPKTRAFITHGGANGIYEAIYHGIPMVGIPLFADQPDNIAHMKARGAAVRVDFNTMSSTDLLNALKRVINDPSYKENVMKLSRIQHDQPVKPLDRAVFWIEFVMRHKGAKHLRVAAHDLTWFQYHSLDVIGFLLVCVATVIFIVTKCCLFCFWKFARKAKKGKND

[8] = tested on: UGTs; conditions: ref Dragacci et al. (1987); cited from earlier work
[9] = tested on: UGT1A3; conditions: ref Fang et al., 2014b; cited from earlier work
[10] = tested on: multiple UGT isoforms, including UGT1A1, UGT1A3, UGT1A4, UGT1A7, UGT1A10, UGT2B7 and UGT2B15; conditions: ref Fang et al., 2013b; cited from earlier work

SMILES: CCCCCCCCCCCCCCCC(=O)OC[C@H](COP(=O)([O-])OCC[N+](C)(C)C)OC(C)=O [PC 16:0, 2:0, 1-palmitoyl-2-acetyl-sn-glycero-3-phosphocholine]
inhibition kinetic type towards UGT1A8 [1]: non-competitively inhibited | inhibition kinetic type towards UGT1A6 [2]: competitive inhibition | inhibition of activity of UGT isoforms [3]: more than 90% | activity at 20 min, 50 μM [4]: 5.5% | inhibition at 20 min, 50 µM [4]: 94.5%

inhibition percentage of UGT1A6 activity [5]: 97.5% | inhibition percentage of UGT1A8 activity [6]: 98.7% | inhibition percentage of UGT2B7 activity [7]: 87.3%
SMILES: CCCCCCCC/C=C\CCCCCCCC(=O)OC[C@@H](O)COP(=O)([O-])OCC[N+](C)(C)C [LPC 18:1]
inhibition of activity of UGT isoforms [3]: more than 90% | increase for UGTs' activity (maximal regulation capability) [8]: approximately 4 fold

activity at 20 min, 50 μM [4]: 63.8%
SMILES: CCCCCCCCCCCCCCCC(=O)OC[C@H](COP(=O)([O-])OCC[N+](C)(C)C)OC(=O)CCCCCCCCCCCCC [PC 16:0, 14:0, 1-palmitoyl-2-myristoyl-sn-glycero-3-phosphocholine]

SMILES: CCCCCCCCCCCCCCCC(=O)OC[C@@H](O)COP(=O)([O-])OCC[N+](C)(C)C [LPC 16:0]
inhibition of activity of UGT isoforms [3]: more than 90%

SMILES: C[C@H](CCC(=O)NCC(=O)O)[C@H]1CC[C@H]2[C@@H]3[C@H](O)C[C@@H]4C[C@H](O)CC[C@]4(C)[C@H]3C[C@H](O)[C@]12C [GCA, glycocholic acid]
effect on the activity of UGT1A3 (in words) [9]: allosteric activation

SMILES: CCCCCCCC/C=C\CCCCCCCC(=O)OC[C@H](COP(=O)([O-])OCC[N+](C)(C)C)OC(=O)CCCCCCCCCCCCCCC [PC 18:1, 16:0, 1-oleoyl-2-palmitoyl-sn-glycero-3-phosphocholine]
activity at 20 min, 50 μM [4]: 52.6%

activity at 20 min, 50 μM [4]: 49.8%
SMILES: CCCCCCCC/C=C\CCCCCCCC(=O)OC[C@H](COP(=O)([O-])OCC[N+](C)(C)C)OC(=O)CCCCCCCCCCCCC [PC 18:1, 14:0, 1-oleoyl-2-myristoyl-sn-glycero-3-phosphocholine]

SMILES: CCCCC/C=C\C/C=C\C/C=C\C/C=C\CCCC(=O)O[C@H](COC(=O)CCCCCCCCCCCCCCCCC)COP(=O)([O-])OCC[N+](C)(C)C [PC 18:0, 20:4, 1-stearoyl-2-arachidonoyl-sn-glycero-3-phosphocholine]
activity at 20 min, 50 μM [4]: 52.1%

SMILES: C[C@H](CCC(=O)NCCS(=O)(=O)O)[C@H]1CC[C@H]2[C@@H]3CC[C@@H]4C[C@H](O)CC[C@]4(C)[C@H]3CC[C@]12C [TLCA, taurolithocholic acid]
inhibitory effects towards multiple UGT isoforms (in words) [10]: strong inhibitory effects

activity at 20 min, 50 μM [4]: 90%
SMILES: CCCCCCCCCCCCCCCCCC(=O)O[C@H](COC(=O)CCCCCCCCCCCCCCC)COP(=O)([O-])OCC[N+](C)(C)C [PC 16:0, 18:0, 1-palmitoyl-2-stearoyl-sn-glycero-3-phosphocholine]

activity at 20 min, 50 μM [4]: 60.4%
SMILES: CCCCCCCC/C=C\CCCCCCCC(=O)OC[C@H](COP(=O)([O-])OCC[N+](C)(C)C)OC(=O)CCCCCCCCCCCCCCCCC [PC 18:1, 18:0, 1-oleoyl-2-stearoyl-sn-glycero-3-phosphocholine]

SMILES: CCCCC/C=C\C/C=C\CCCCCCCC(=O)O[C@H](COC(=O)CCCCCCCCCCCCCCCCC)COP(=O)([O-])OCC[N+](C)(C)C [PC 18:0, 18:2, 1-stearoyl-2-linoleoyl-sn-glycero-3-phosphocholine]
activity at 20 min, 50 μM [4]: 54.3%

activity at 20 min, 50 μM [4]: 51.8%
SMILES: CCCCCCCC/C=C\CCCCCCCC(=O)O[C@H](COC(=O)CCCCCCCCCCCCCCC)COP(=O)([O-])OCC[N+](C)(C)C [PC 16:0, 18:1, 1-palmitoyl-2-oleoyl-sn-glycero-3-phosphocholine]

SMILES: C[C@H](CCC(=O)O)[C@H]1CC[C@H]2[C@@H]3[C@H](O)C[C@@H]4C[C@H](O)CC[C@]4(C)[C@H]3C[C@H](O)[C@]12C [CA, cholic acid]
effect on the activity of UGT1A3 (in words) [9]: allosteric activation
